According to US11207277B2, “Methods of treating diseases associated with high-fat diet and vitamin a deficiency using retinoic acid receptor agonists” (Cornell University, priority 2013, dated 2021):
“Also recorded” adds a separate entry of the source.

Key:
4-hydroxynonenal (4-HNE) = assay: 4-HNE staining of pancreas sections, HF-fed mice; type: in vivo; details: HF diet mice, AC261066 1.5 mg/100 ml drinking water 3 months; vs HF-vehicle
Description: AC261066 was dissolved in dimethyl sulfoxide (DMSO) at the concentration of 1.5 mg/ml, and diluted in the drinking water for mice to the final concentration of 1.5 mg/100 ml.
(§1) WT male C57/BL6 male mice were maintained on either a standard laboratory chow-fed diet (CFD) with 13% kcal fat, (diet #5053, Lab Diet, Inc, St. Louis, Mo.) or a high fat, western style diet (HFD) with 60% kcals from fat, (diet #58126, Lab Diet, Inc., St. Louis, Mo.) for 4 months. One month after the start of the high fat diet treatment, the high fat diet group was further split into 2 groups for 3 months: i) high fat diet and the drinking water containing 1% DMSO; ii) high fat diet and the drinking water containing 1.5 mg/100 ml AC261066, a specific RARβ agonist. Then mice were sacrificed by cervical dislocation. Blood and various tissue samples were harvested.
Paraffin-embedded sections (from two to four mice per group) were deparaffinized and rehydrated, and antigen retrieval was performed using an antigen unmasking solution (Vector Laboratories, H-3300). After quenching endogenous peroxidase with 3% H2O2, the tissue sections were blocked with the blocking reagent (from the M.O.M. kit from Vector Laboratories). Then, tissue sections were incubated with a 4-HNE antibody (1:400; mouse monoclonal antibody: Abcam, ab48506) overnight at 4° C. […]

c-peptide = assay: c-peptide/glucagon immunofluorescence of pancreatic islets, HF-fed mice; type: in vivo
Description: Immunofluorescence assays on cells and tissue sections were performed as previously described (29). Briefly, differentiated samples were fixed using 4% (w/v) paraformaldehyde and membrane permeabilization (for cells only) was done with 0.3% (w/v) Triton-X 100 (Sigma). Unspecific sites were blocked using 2% BSA for 30 min prior to incubation with rabbit polyclonal anti-PDX1 (Millipore, 06-1379, 1:1000), rabbit anti-C-Peptide (Cell Signaling, 4593, 1:500, Danvers, Mass.) and mouse monoclonal anti-Glucagon (Abcam, ab10988, 1:200) primary antibodies. Phalloidin-TRITC (Millipore, FAK100, 1:1000, Billerica, Mass.) was used to stain the actin stress fiber network (F-actin). Nuclei were stained using DAPI contained in Vectashield® mounting medium for fluorescence (Vector labs, Burlingame, Calif.). Quantitation of C-peptide positive stained cells and islet surface area was performed using MS-Elements Advanced Research software (Nikon).
WT male C57/BL6 male mice were maintained on either a standard laboratory chow-fed diet (CFD) with 13% kcal fat, (diet #5053, Lab Diet, Inc, St. Louis, Mo.) or a high fat, western style diet (HFD) with 60% kcals from fat, (diet #58126, Lab Diet, Inc., St. Louis, Mo.) for 4 months. […]

[1] = system: hepatocyte lipid accumulation; assay: Hematoxylin and eosin staining of liver sections (hepatic steatosis); type: in vivo; details: HF diet mice 4 months + AC261066 or CD1530; vs HF-vehicle
From the text: as §1
At sacrifice, fresh mouse liver samples were fixed in 4% formaldehyde solution for 24 hr and embedded in paraffin blocks. Liver paraffin sections were cut 5 microns thick and mounted on glass slides and stained with hematoxylin and eosin (H and E) using standard protocols.

alpha-SMA = assay: Semi-quantitative PCR liver, alpha-SMA; type: in vivo; details: HF diet mice + AC261066 or CD1530; vs HF-vehicle
From the text: as §1
(§2) Total RNA was extracted from mouse tissues using TRIzol reagent (Life technologies) and (1 μg) was used to synthesize cDNA. cDNA synthesis was performed at 42° C. for 1 h in a final volume of 20 μl using qScript (Quanta, MD). Semi-quantitative PCR were performed Taq DNA polymerase (Invitrogen, CA). Three step PCR was run as follows: 94° C. for 30 s, 58-64° C. for 45 s for primer annealing and 72° C. for 1 min for primer extension. The number of cycles for each primer pair for amplification in the linear range was determined experimentally. PCR products were resolved 2% agarose gels and visualized by staining with ehtidium bromide. Primers for gene expression used were as follows: […]

MCP-1 = assay: Semi-quantitative PCR liver, MCP-1; type: in vivo; details: HF diet mice + AC261066 or CD1530
From the text: as §1, §2

[2] = system: retinyl palmitate and retinol; assay: HPLC analysis of liver retinoids; type: in vivo, mice
From the text: as §1
The frozen liver tissue samples (˜100 mg) were homogenized in 500 μl cold phosphate-buffered saline (PBS). In addition, 100 μl serum was diluted in cold PBS to total volume of 500 μl. Retinyl acetate was added to each sample before the retinoid extraction for the calculation of extraction efficiency. The retinoids were extracted into 350 μl of organic solution (acetonitrile/butanol, 50:50, v/v) in the dark. The high performance liquid chromatography (HPLC) was performed using a Waters Millennium system (Waters). Each sample (100 μl of the 350 μl) was loaded onto an analytical 5-μm reverse phase C18 column (Vydac, Hesperia, Calif.) and eluted at a flow rate of 1.5 ml/min. Two mobile phase gradient systems were used. Retinoids were identified by HPLC based on two criteria: an exact match of the retention times of unknown peaks with those of authentic retinoid standards and identical UV light spectra (220-400 nm) of unknowns against spectra from authentic retinoid standards during HPLC by the use of a photodiode array detector. The amounts of retinoids were calculated from the areas under the peaks detected at the wave-length of 325 nm. The levels of retinol and retinyl esters were normalized to the tissue weight.

all-trans retinol = assay: HPLC analysis of serum retinol; type: in vivo; details: CF, HF and HF+AC261066 fed mice
From the text: as §1
The frozen liver tissue samples (˜100 mg) were homogenized in 500 μl cold phosphate-buffered saline (PBS). In addition, 100 μl serum was diluted in cold PBS to total volume of 500 μl. Retinyl acetate was added to each sample before the retinoid extraction for the calculation of extraction efficiency. The retinoids were extracted into 350 μl of organic solution (acetonitrile/butanol, 50:50, v/v) in the dark. The high performance liquid chromatography (HPLC) was performed using a Waters Millennium system (Waters). […] The amounts of retinoids were calculated from the areas under the peaks detected at the wave-length of 325 nm. […]

TNF-α = assay: Semi-quantitative PCR kidney, TNF-α; type: in vivo; details: HF diet mice + AC261066
From the text: as §1
as §2, with “(Invitrogen.” for “(Invitrogen,”, “resolved on” for “resolved”

RARβ2 = assay: Semi-quantitative PCR kidney, RARβ2; type: in vivo; details: HF diet mice + AC261066
From the text: as §1
as §2, with “(Invitrogen.” for “(Invitrogen,”, “resolved on” for “resolved”

LRAT = assay: Semi-quantitative PCR kidney, LRAT; type: in vivo; details: HF diet mice + AC261066
From the text: as §1
as §2, with “(Invitrogen.” for “(Invitrogen,”, “resolved on” for “resolved”

[3] = HF diet mice + AC261066 or CD1530 vs controls

CCCCOCCOc1nc(-c2ccc(C(=O)O)c(F)c2)sc1C [AC261066]
4-HNE staining intensity (oxidative stress) in pancreatic islets (4-hydroxynonenal (4-HNE)): reduces oxidative stress in the pancreatic islets; also recorded: markedly lower 4-HNE staining intensity levels
c-peptide level in pancreatic islets (c-peptide; HF diet + AC261066 vs HF diet mice): slightly reduces expression of c-peptide; also recorded: slightly decreased c-peptide level
c-peptide staining in pancreatic islets (c-peptide; HF+AC261066 fed mice vs control diet controls): marked increase in c-peptide staining
hepatocyte lipid infiltration / hepatic steatosis (H and E) [1]: diminished hepatic steatosis; also recorded: prevent hepatic steatosis; also recorded: marked decreased hepatocyte lipid infiltration
hepatic mRNA levels of alpha-SMA (alpha-SMA): also decreased
mRNA levels of MCP-1 in liver (MCP-1): decreases levels of inflammatory proteins MCP-1 and TNF alpha
higher levels of retinyl palmitate in the livers compared to HF-vehicle treated mice ([2]; HF diet mice + AC261066): 55%
liver retinol compared to controls [2, 3]: significantly lowered
liver retinyl palmitate compared to controls [2, 3]: significantly lowered
vitamin A deficiency in liver caused by high fat diet ([2]; HFD+AC261066): partially reversed
serum levels of all-trans retinol (all-trans retinol): not different
mRNA levels of TNF-α in kidney (TNF-α): reduces the levels of TNF-alpha
RARβ2 mRNA levels in kidney (RARβ2): restores RAR beta and LRAT mRNA levels; also recorded: did not have decreased RARβ2 mRNA levels
LRAT mRNA levels in kidney (LRAT): restores RAR beta and LRAT mRNA levels
